Data on one substance can be found in patent US8192925B2, “Polypeptides having antimicrobial activity and polynucleotides encoding same” (Novozymes Adenium Biotech A/S, priority 2004, dated 2012).

Common to all, as to test: Microdilution MIC assay (NCCLS/CLSI guidelines)
Holding throughout (format): cell-based
Common to all, as to details: tested 0.06-32 μg/ml
For orientation: Broth dilution looks for growth in wells or tubes with falling amounts of substance.

For assay [1], the system named is Staphylococcus aureus, ATCC 29213. The method, then: (§1) Purified Eurocin was evaluated for antimicrobial activity in a microdillution assay. The
(§2) Minimal Inhibitory Concentration (MIC) was determined following the NCCLS/CLSI guidelines from CLSI (Clinical and Laboratory Standards Institute).
(§3) Eurocin was tested at the following concentrations: 32; 16; 8; 4; 2; 1; 0.50; 0.25; 0.13; and 0.06 μg/ml.

For assay [2], the system named is Streptococcus pneumoniae, ATCC 49619. As for the experimental part:
as §1, §2, §3

The subject of assay [3] is Micrococcus luteus, ATCC 9341. The method, then: as §1, §2, §3
In assay [4] the test system is Staphylococcus carnosus, ATCC 51365. As for the experimental part: as §1, §2, §3
The subject of assay [5] is Enterococcus faecium, ATCC 49624. As for the experimental part:
as §1, §2, §3

The test system of assay [6] is Staphylococcus epidermidis, ATCC 12228. The method, then:
as §1, §2, §3

Assay [7] has as its system Streptococcus pyogenes, ATCC 12344. As for the experimental part:
as §1, §2, §3

By MIC is commonly meant the smallest concentration in the dilution series that meets the test's criterion for growth inhibition. A low value points to inhibition by little substance. Take “Eurocin: antimicrobial polypeptide shown as amino acids 1 to 42 of SEQ ID NO:2, from Eurotium amstelodami, expressed in Aspergillus oryzae (MHFTKVSTILFTIFAAGIMAAPTEGVREEAAPGQEVYPDEPP; listed as Eurotium amstelodami)”: the MIC was 16 µg/mL in assay [1]; 0.25 µg/mL in assay [2]; 0.5 µg/mL in assay [3]; 8 µg/mL in assay [4]; 16 µg/mL in assay [5]; 16 µg/mL in assay [6]. Also, the MIC in assay [7] is 0.13 µg/mL.
